The Kd is the constant that tells how readily two partners part at equilibrium.

Among the data in patent US10919937B2, “Bicyclic peptide ligands and uses thereof” (BicycleTx Limited, priority 2018, dated 2021) are Kd values, retold here.

The target in one test is T1, EphA2 (Homo sapiens, UniProt P29317).
T1 construct: purchased
Description: EphA2 SPR Assay. It counts as binding. The conditions noted are these: n = 2. The procedure:
SPR Measurements: Non-Fc fusion proteins were biotinylated with EZ-Link™ Sulfo-NHS-LC-Biotin for 1 hour in 4 mM sodium acetate, 100 mM NaCl, pH 5.4 with a 3× molar excess of biotin over protein. The degree of labelling was determined using a Fluorescence Biotin QuantificationKit (Thermo) after dialysis of the reaction mixture into PBS. For analysis of peptide binding, a Biacore T200 10 instrument was used utilising a XanTec CMD500D chip. Streptavidin was immobilized on the chip using standard amine-coupling chemistry at 25° C. with HBS—N (10 mM HEPES, 0.15 M NaCl, pH 7.4) as the running buffer. Briefly, the carboxymethyl dextran surface was activated with a 7 min injection of a 1:1 ratio of 0.4 M 1-ethyl-3-(3-dimethylaminopropyl) carbodiimide hydrochloride (EDC)/0.1 M N-hydroxy succinimide (NHS) at a flow rate of 10 μl/min. For capture of streptavidin, the protein was diluted to 0.2 mg/ml in 10 mM sodium acetate (pH 4.5) and captured by injecting 120 μl onto the activated chip surface. Residual activated groups were blocked with a 7 min injection of 1 M ethanolamine (pH 8.5):HBS—N (1:1). Buffer was changed to PBS/0.05% Tween 20 and biotinylated EphA2 was captured to a level of 500-1500 RU using a dilution of protein to 0.2 μM in buffer. […]

In another test the target is CAIX (Homo sapiens, UniProt Q16790). The conditions noted are these: bicyclic peptide formed with TBMB scaffold; CAIX binder; cited from earlier work.
In the next test the target is MT1-MMP (Homo sapiens, UniProt P50281). The conditions noted are these: bicyclic peptide formed with TBMB scaffold; MT1-MMP binder; cited from earlier work.

*1 amine or outer side, *2 acyl side, *3 side chain or, on linkers, in order; H or OH if unused. Where a SMILES comes first, the peptide text is derived from it. Bridges are numbered along the chain shown (N, C = ends). [ ]: non-standard residue; d: D form. X11 = O=C(C[*:1])N1CCN(c2ccc(-c3nc(-c4ccc(N5CCN(C(=O)C[*:2])CC5)cc4)nc(-c4ccc(N5CCN(C(=O)C[*:3])CC5)cc4)n3)cc2)CC1; X7 = O=C(c1ccc(C[*:1])cc1)N1CN(C(=O)c2ccc(C[*:2])cc2)CN(C(=O)c2ccc(C[*:3])cc2)C1

T1 sequence (P29317 24-976, species assumed): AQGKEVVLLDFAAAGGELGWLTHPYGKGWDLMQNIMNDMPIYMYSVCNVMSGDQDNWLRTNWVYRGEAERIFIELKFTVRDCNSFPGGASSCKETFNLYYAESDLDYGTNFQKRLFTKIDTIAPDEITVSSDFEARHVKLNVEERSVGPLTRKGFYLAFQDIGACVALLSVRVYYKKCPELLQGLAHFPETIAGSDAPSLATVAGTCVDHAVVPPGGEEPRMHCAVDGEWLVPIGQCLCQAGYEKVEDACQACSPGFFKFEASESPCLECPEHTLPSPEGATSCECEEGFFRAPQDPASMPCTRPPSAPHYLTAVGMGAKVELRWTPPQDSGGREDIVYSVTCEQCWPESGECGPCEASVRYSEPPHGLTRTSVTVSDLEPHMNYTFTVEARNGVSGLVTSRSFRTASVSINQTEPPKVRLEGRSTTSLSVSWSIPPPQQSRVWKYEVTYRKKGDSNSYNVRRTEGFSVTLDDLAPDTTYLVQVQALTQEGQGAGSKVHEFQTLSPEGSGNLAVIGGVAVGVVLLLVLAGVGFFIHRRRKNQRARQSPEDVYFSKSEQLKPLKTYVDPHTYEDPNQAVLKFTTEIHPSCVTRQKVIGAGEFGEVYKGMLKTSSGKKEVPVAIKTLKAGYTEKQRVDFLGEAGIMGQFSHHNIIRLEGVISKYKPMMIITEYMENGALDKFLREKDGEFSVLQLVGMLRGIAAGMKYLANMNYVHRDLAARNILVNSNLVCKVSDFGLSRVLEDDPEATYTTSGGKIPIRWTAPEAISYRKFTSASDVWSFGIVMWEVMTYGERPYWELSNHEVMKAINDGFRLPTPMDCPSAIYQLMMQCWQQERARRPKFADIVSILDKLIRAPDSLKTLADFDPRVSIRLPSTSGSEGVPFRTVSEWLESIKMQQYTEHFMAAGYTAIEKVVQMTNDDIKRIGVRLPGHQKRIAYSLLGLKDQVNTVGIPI

For the compound `CC(C)[C@H](NC(=O)[C@H](CC(=O)O)NC(=O)[C@H](C)N)C(=O)N[C@@H](Cc1cnc[nH]1)C(=O)N[C@H]1CSCC(=O)N2CCN(CC2)c2ccc(cc2)-c2nc3nc(n2)-c2ccc(cc2)N2CCN(CC2)C(=O)CSC[C@H](NC(=O)[C@H](Cc2c[nH]c4ccccc24)NC(=O)[C@H](Cc2ccccc2)NC(=O)[C@H]2CCCN2C(=O)CNC(=O)[C@H](Cc2c[nH]c4ccccc24)NC(=O)[C@@H]2CCCN2C1=O)C(=O)N1CCC[C@H]1C(=O)N[C@@H](C(C)C)C(=O)N[C@H](CC(N)=O)C(=O)N[C@H](CCCNC(=N)N)C(=O)N1CCC[C@@H]1C(=O)NCC(=O)N[C@H](C(=O)N[C@@H](C)C(=O)O)CSCC(=O)N1CCN(CC1)c1ccc-3cc1` [I-104] (H-ADVHCPWG[dP]FWCPV[dN][dR][dP]GCA-OH; linker 5-12-19 via X11), the Kd on EphA2 was under 500 nM. For the compound “βAla-Sar10-A-CTECWVDGWVPC (AXACTECWVDGWVPC; βAla-Sar10 N-terminal; TBMB scaffold; MOD_RES (1)..(1) Beta-Ala; MOD_RES (2)..(2) Sar10) [compound 2]”, the dissociation constant Kd in the test with CAIX was 10 nM. Consider “βAla-Sar10-A-C(D-Ala)NE(1Nal)(D-Ala)CEDFYD(tBuGLy)C (AXACANEXACEDFYDGC; βAla-Sar10 N-terminal; non-natural residues; molecular scaffold; MOD_RES (1)..(1) Beta-Ala; MOD_RES (2)..(2) Sar10; MOD_RES (5)..(5) D-Ala; MOD_RES (8)..(8) 1Nal; MOD_RES (9)..(9) D-Ala; MOD_RES (16)..(16) tBu-Gly) [17-69-07-N241, treated with molecular scaffold reagents]”, for which the Kd in the test with MT1-MMP is 1.2 nM. `CC(C)[C@H](NC(=O)[C@H](CC(=O)O)NC(=O)[C@H](C)N)C(=O)N[C@@H](Cc1cnc[nH]1)C(=O)N[C@H]1CSCc2ccc(cc2)C(=O)N2CN3CN(C2)C(=O)c2ccc(cc2)CSC[C@H](NC(=O)[C@H](Cc2c[nH]c4ccccc24)NC(=O)[C@H](Cc2ccccc2)NC(=O)[C@H]2CCCN2C(=O)CNC(=O)[C@H](Cc2c[nH]c4ccccc24)NC(=O)[C@@H]2CCCN2C1=O)C(=O)N1CCC[C@H]1C(=O)N[C@@H](C(C)C)C(=O)N[C@H](CC(N)=O)C(=O)N[C@H](CCCNC(=N)N)C(=O)N1CCC[C@@H]1C(=O)NCC(=O)N[C@H](C(=O)N[C@@H](C)C(=O)O)CSCc1ccc(cc1)C3=O` [I-103] (H-ADVHCPWG[dP]FWCPV[dN][dR][dP]GCA-OH; linker 5-12-19 via X7) yielded a Kd on EphA2 of over 10000 nM.
